From patent publication US11771685B2, “Compounds for the treatment of neurological or mitochondrial diseases” (MUSC FOUNDATION FOR RESEARCH DEVELOPMENT, priority 2018, dated 2023)
Where two headings read alike, the source gives them in different places.

What was measured:
[1] = In vivo pharmacokinetics in CD-1 mice; parameters: species or system mouse; settings: for Vd: read-out: Vss; for Cmax: read-out: Cmax; for concentration at 24 hr / concentration at 8 hr: read-out: Clast; for concentration at 8 hr: 8 hr post-dose
Protocol: (§1) PK studies on 3 and 25 were carried out in CD-1 mice. Three males were dosed via oral gavage needle for oral administration at 20 mg/kg (10 mL/kg) or via intravenous administration at 5 mg/kg (10 mL/kg). Blood samples were taken at time intervals between 5 min and 24 hr from each animal.
The PK studies of 1 were performed by WuXi AppTec and PK studies of 3 and 25 were performed by Touchstone Biosciences (Peng et al., 2006b; Peng et al., 2001; Peng et al., 2006a; Peng et al., 2009). Male CD-1 mice were fed a standard laboratory rodent diet and housed in individual cages on a 12 hr light and 12 hr dark cycle with room temperature maintained at 22±3° C. and relative humidity at 50±20%. Animals were typically fasted overnight before dosing, with food returned after the 6 hr blood samples were obtained. Water was provided ad libitum throughout the study. The dosing solution of each test compound was prepared in a desired oral or intravenous formulation. Three to four animals were dosed via gavage needle for oral administration at 10-20 mg/kg (10-20 mL/kg) or via tail vein injection for IV administration at 2-5 mg/kg (2-5 mL/kg). […] Fluid replacement (1.5 mL of 0.9% NaCl injection, USP) was administered subcutaneously once after the 2 hr blood sampling. Blood samples were collected in BD Microtainer tubes coated with anticoagulant, placed on ice, and within 30 min, centrifuged at 15,000 g for 5 min to obtain plasma samples. All plasma samples were stored at −70° C. until analysis.
Plasma samples were prepared as follows. Three volumes of acetonitrile containing internal standard was added to one volume of plasma to precipitate proteins. Samples were centrifuged (3000 g for 10 min) and supernatant removed for analysis by LC-MS/MS. Calibration standards and quality controls were made by preparation of a 1 mg/mL stock solution and subsequently a series of working solutions in methanol:water (1:1, v/v) which were spiked into blank plasma to yield a series of calibration standard samples in the range of 1.0 ng/mL to 10 μg/mL and quality control samples at three concentration levels (low, middle and high). All incurred PK/PD plasma samples were treated identically to the calibration standards and quality control samples. LC-MS-MS analysis was performed utilizing multiple reaction monitoring for detection of characteristic ions for each drug candidate, additional related analytes and internal standard.
Plasma concentrations were measured as described above to determine a concentration vs. time profile. The area under the plasma concentration vs time curve (AUC) was calculated using the linear trapezoidal method. Fitting of the data to obtain pharmacokinetic parameters was carried out using non-compartmental analysis. Key PK parameters reported following intravenous administration are as follows: terminal half-life t1/2, initial plasma concentration C0, area under the plasma concentration vs. time curve AUC, volume of distribution at steady-state Vss, total plasma clearance CLp, and mean residence time MRT. Key PK parameters reported following extravascular administration are as follows: terminal half-life t1/2, maximum plasma concentration Cmax, time to reach maximum plasma concentration tmax, area under the plasma concentration vs. time curve AUC, mean residence time MRT, and bioavailability F. All parameters are expressed for individual animals as well as mean, standard deviation, and coefficient of variation.

[2] = Clinical observations in dosed mice; assay type: in vivo; settings: for clinical symptoms during the IV study: intravenous 5 mg/kg, CD-1 mice
Protocol: as §1
PO PK experiments were repeated for 25, with oral dosing at 20 mg/kg and 10 mL/kg of a suspension with 1% Tween 80:1% carboxymethylcellulose in water.
Table 2 provides a summary of efficacy studies in vivo in mice, and in rat brain slices, using the 5% DMSO:95% Neobee formulation.

[3] = system: PTZ-induced seizure activity in zebrafish larvae; test: Zebrafish PTZ-induced seizure model; assay type: in vivo; settings: for anti-seizure activity / minimal effective concentration: 7 dpf larvae; for anti-seizure activity: PTZ; for minimal effective concentration: 1 hr pre-treatment, 10 mM PTZ, read-out: Anti-seizure activity: lowest tested dose with significant difference vs PTZ-only group
Protocol: The zebrafish PTZ-induced seizure model was used to determine the most promising compounds' in vivo efficacy. Zebrafish larvae (7 dpf) were treated with the compound for 1 hr prior to inducing seizures with PTZ. As established by previous larval zebrafish anti-seizure studies (Rahn et al., 2014; Hansen et al., 2004; Baraban et al., 2005), total distance traveled by each fish after seizure induction was measured and used as a proxy for seizure activity. Following collection of locomotor data, observation of a startle response and visual inspection for abnormal morphology confirmed that alterations in swim activity were not caused by compound toxicity.
We induced seizures in 7 dpf zebrafish larvae by the addition of […] PTZ as originally developed by Baraban et al., 2005. In a 48-well plate, one 7-dpf zebrafish was added per well. Larvae were dosed with each compound at a sub-lethal dose 1 hr prior to PTZ treatment. Two control rows were included with each experiment—tank water only control and PTZ only. Seizures were induced by adding PTZ to wells to yield a final concentration of 10 mM. After 5 min, the plate was transferred to the Daniovision instrument (Noldus Information Technology) and the chamber light was turned on. After 2 min, MediaRecorder (Noldus) was used to record video for 15 min. A small number of videos were acquired at 25 frames per second, but the majority of data were acquired at 60 frames per second. […] Ethovision XT software (Noldus) was used to track the fish movement from the video images in order to calculate the total distance traveled over 15 min. All experimental comparisons were made between animals from the same clutch.
Statistical analyses were performed with GraphPad Prism 6 software. For the in vitro HT22 oxytosis assay, dose-response data were fit using GraphPad Prism's log(inhibitor) vs normalized response-variable slope parameters to determine EC50 values and 95% confidence intervals. For the zebrafish locomotive anti-seizure activity data, multiple comparisons were made using a one-way analysis of variance (ANOVA) with a Kruskal-Wallis Test, followed by the Dunn's Method to determine significant differences between all pairs or between control and experimental groups using the Dunn Method for Joint Ranking. Differences were considered statistically significant when p<0.05. Data from zebrafish experiments are represented as scatter dot plots of individual measurements, with means±standard deviation indicated by bars.

[4] = intravenous, 3 and 25 at 5 mg/kg, 5 mg/kg
[5] = male, CD-1, mouse, plasma, iv, 5 mg/kg, intravenous, 3 and 25 at 5 mg/kg, read-out: CL
[6] = male, CD-1, mouse, plasma, iv, 5 mg/kg, intravenous, 3 and 25 at 5 mg/kg
[7] = male, CD-1, mouse, plasma, iv, 5 mg/kg, 3 and 25 at 5 mg/kg
[8] = male, CD-1, mouse, plasma, po, 20 mg/kg, oral 20 mg/kg, 20% DMA-40% PEG300-40% H2O
[9] = male, CD-1, mouse, plasma, po, 20 mg/kg, oral 20 mg/kg, suspension 1% Tween 80:1% carboxymethylcellulose in water
[10] = male, CD-1, mouse, plasma, intravenous, 5 mg/kg
[11] = male, CD-1, mouse, plasma, intravenous, 3 and 25 at 5 mg/kg
[12] = male, CD-1, mouse, plasma, oral 20 mg/kg, 20% DMA-40% PEG300-40% H2O
[13] = oral 20 mg/kg, 20% DMA-40% PEG300-40% H2O
[14] = male, CD-1, mouse, plasma, ip, 20 mg/kg, intraperitoneal 20 mg/kg, 5% DMSO: 95% neobee
[15] = male, CD-1, mouse, plasma, iv, 5 mg/kg, intravenous 5 mg/kg, 20% DMA: 40% PEG300: 40% H2O
[16] = male, CD-1, mouse, plasma, po, 20 mg/kg, oral 20 mg/kg, 5% DMSO: 95% Neobee
[17] = oral 20 mg/kg, 5% DMSO: 95% Neobee

In the case of CC(C)CCOC1=CC(=O)c2ccccc2C1=O [Compound 25, 2-(Isopentyloxy)naphthalene-1,4-dione], the AUCinf/D ([1]; intravenous, 5 mg/kg) is reported as 242 h·(ng/mL)/(mg/kg), the tlast ([1]; intravenous, 5 mg/kg) is reported as 24 h and the CL [1, 4] is reported as 69 mL/min/kg. It also gave a Vss [1, 4] of 13 L/kg, a clearance [1, 5] of 68.8 mL/min/kg and a Vd [1, 6] of 13.2 L/kg. It also gave an AUC(0-inf) [1, 7] of 1210 ng·h/mL, an AUC(0-t) [1, 7] of 1200 ng·h/mL and an MRT inf [1, 7] of 3.2 h. The half-life [1, 7] was 4.31 h, the AUC(0-inf) [1, 8] was 11500 ng·h/mL and the AUC(0-t) [1, 8] was 7360 ng·h/mL. The MRT inf [1, 8] was 7.84 h, the Tmax [1, 8] was 0.333 h and the half-life [1, 8] was 5.56 h. The Cmax [1, 8] was 2080 ng/mL, the AUC(0-inf) [1, 9] was 1950 ng·h/mL and the half-life [1, 9] was 3.49 h. For the same molecule, the Cmax [1, 9] was 282 ng/mL, the bioavailability ([1]; male, CD-1, mouse, plasma, po, 20 mg/kg, oral 20 mg/kg, suspension 1% Tween 80:1% carboxymethylcellulose in water, read-out: oral bioavailability (F)) was 40.3% and the concentration at 24 hr [1, 10] was 2.26 ng/mL. The C0 [1, 11] was 1600 ng/mL, the concentration at 8 hr [1, 12] was 531 ng/mL and the “decrease of Cmax and AUC, suspension vs solution formulation” value ([1]; oral 20 mg/kg) was 6-7 fold. The AUCinf/D [1, 13] was 576 h·(ng/mL)/(mg/kg), the Cmax/D [1, 13] was 104 (ng/mL)/(mg/kg) and the tlast [1, 13] was 8 h. The T1/2 ([1]; oral 20 mg/kg, 20% DMA-40% PEG300-40% H2O, 20 mg/kg) was 5.6 h, the “oral bioavailability (F)” value ([1]; oral 20 mg/kg, suspension 1% Tween 80:1% carboxymethylcellulose in water, 20 mg/kg) was 40% and the “clinical symptoms during the IV study” value [2] was “no abnormal clinical symptoms”. The “clinical symptoms after oral dosing” value ([2]; oral 20 mg/kg, suspension 1% Tween 80:1% carboxymethylcellulose in water) was “No abnormal clinical symptoms”, the “anti-seizure activity” value [3] was “decrease seizures in a zebrafish model of epilepsy in a dose-dependent manner” and the minimal effective concentration ([3]; Danio rerio) was ≤ 5 µM. It also gave an inhibition in vivo at 2.5 µM ([3]; Danio rerio, 2.5 μM, read-out: reduction of PTZ-induced locomotor activity) of 45%.

With CCC#CCNC1=CC(=O)c2ccccc2C1=O [Compound 3, 2-(Pent-2-yn-1-ylamino)naphthalene-1,4-dione] the tlast ([1]; intraperitoneal 20 mg/kg, 5% DMSO: 95% neobee) was 24 h, the Clast ([1]; intravenous 5 mg/kg, 20% DMA: 40% PEG300: 40% H2O) was 1.37 ng/mL and the AUCinf/D ([1]; intravenous, 5 mg/kg) was 89.6 h·(ng/mL)/(mg/kg). The tlast ([1]; intravenous, 5 mg/kg) was 24 h, the t1/2 [1, 4] was ~15 h and the Kp ([1]; male, CD-1, mouse, brain/plasma, listed under intravenous 5 mg/kg, read-out: Brain Plasma Ratio) was 0.373. It also gave an AUC(0-t) [1, 14] of 463 ng·h/mL, a half-life [1, 14] of 7.25 h and an AUC(0-inf) [1, 15] of 448 ng·h/mL. The AUC(0-t) [1, 15] was 421 ng·h/mL, the MRT inf [1, 15] was 4.28 h and the half-life [1, 15] was 14.7 h. The clearance ([1]; male, CD-1, mouse, plasma, iv, 5 mg/kg, intravenous 5 mg/kg, 20% DMA: 40% PEG300: 40% H2O, read-out: CLp) was 188 mL/min/kg, the Vd [1, 15] was 48.6 L/kg and the clearance [1, 5] was 188 mL/min/kg. It also gave a Vd [1, 6] of 48.6 L/kg, an AUC(0-inf) [1, 7] of 448 ng·h/mL and an AUC(0-t) [1, 7] of 421 ng·h/mL. The MRT inf [1, 7] was 4.28 h, the half-life [1, 7] was 14.7 h and the AUC(0-inf) [1, 16] was 688 ng·h/mL. For the same molecule, the AUC(0-t) [1, 16] was 682 ng·h/mL, the MRT inf [1, 16] was 5.71 h and the Tmax [1, 16] was 4 h. For the same molecule, the half-life [1, 16] was 3.34 h, the Cmax [1, 16] was 90.2 ng/mL and the AUC(0-inf) [1, 8] was 992 ng·h/mL. It also gave an AUC(0-t) [1, 8] of 738 ng·h/mL, an MRT inf [1, 8] of 5.82 h and a Tmax [1, 8] of 0.139 h. It also gave a half-life [1, 8] of 5.27 h, a Cmax [1, 8] of 394 ng/mL and a concentration at 24 hr ([1]; male, CD-1, mouse, plasma, intraperitoneal 20 mg/kg, 5% DMSO: 95% neobee) of 1.47 ng/mL. It also gave a concentration at 24 hr [1, 10] of 1.37 ng/mL, a C0 [1, 11] of 1520 ng/mL and a concentration at 24 hr ([1]; male, CD-1, mouse, plasma, oral 20 mg/kg, 5% DMSO: 95% Neobee) of 1.21 ng/mL. It also gave a concentration at 8 hr [1, 12] of 33.1 ng/mL, an F [1, 17] of 38.4% and a tlast [1, 17] of 24 h. The AUCinf/D [1, 13] was 49.6 h·(ng/mL)/(mg/kg), the Cmax/D [1, 13] was 19.8 (ng/mL)/(mg/kg) and the F [1, 13] was 55.3%. For the same molecule, the tlast [1, 13] was 8 h, the pigmented urine ([2]; efficacy studies, 5% DMSO:95% Neobee formulation) was “showed pigmented urine” and the “clinical symptoms during the IV study” value [2] was “no abnormal clinical symptoms”. The “anti-seizure activity” value [3] was “decrease seizures in a zebrafish model of epilepsy in a dose-dependent manner”, the minimal effective concentration ([3]; Danio rerio) was ≤ 5 µM and the inhibition in vivo at 5 µM ([3]; Danio rerio, 5 μM, read-out: reduction of PTZ-induced locomotor activity) was 62%. For the same molecule, the inhibition in vivo at 10 µM ([3]; Danio rerio, 10 μM, read-out: reduction of PTZ-induced locomotor activity) was 80% and the inhibition in vivo at 20 µM ([3]; Danio rerio, 20 μM, read-out: reduction of PTZ-induced locomotor activity) was 91%.
